Assays:
Format in all cases: cell-based, Staphylococcus aureus
MRSA = experiment: Recombinant phage luciferase assay, oxacillin vs cefoxitin (Table 1), MRSA strains
Protocol: (§1) Bacterial strains were serially diluted to approximately 1×10^3 CFU/mL and transferred to a 96-well plate at 135 μL per well. 15 μL of oxacillin or cefoxitin were added to the wells to reach a final concentration of 1.0 μg/mL or 2.0 μg/mL of oxicillin or 2.0 μg/mL, 4.0 μg/mL, 8.0 μg/mL, or 10.0 μg/mL of cefoxitin. The plate was then sealed and incubated at 37° C. for 2 hours. 10 μL of recombinant phage (1.6×10^8 pfu/mL) was added to each well. The plate was then re-sealed and incubated at 37° C. for 2 hours. A master mix was made containing 15 μL 5× lysis buffer, 50 μL luciferase assay buffer, and 1 μL luciferase substrate per well. 65 μL of master mix was added to each well. Luminescence from the reactions was read on a GLOMAX® Navigator and relative luminal units (RLU) for each reaction were analyzed. RLU values three times greater than an established background RLU level for LB (>750 RLU) were considered positive. The results, shown in Table 1, indicate that the recombinant phage are capable of detecting the tested bacterial strains.

MSSA = experiment: Recombinant phage luciferase assay, oxacillin vs cefoxitin (Table 1), MSSA strains
Protocol: as §1

BAA-1720 MRSA = experiment: MRSA detection from Copan e-Swabs (Table 3)
Protocol: Bacterial strains were serially diluted and Copan e-Swabs™ were inoculated with 100 μL of LB with approximately the target number of cells of 1000 CFU, 500 CFU, 250 CFU, 125 CFU, 63 CFU, 31 CFU, 16 CFU, or 8 CFU. Swabs were then eluted in 1 mL modified Amies solution (included with commercially available Copan e-Swabs™). 135 μL of this solution was added to each well of a 96-well plate. 15 μL of cefoxitin was added to the wells to reach a final concentration of 1.8 μg/mL, 3.6 μg/mL, or 5.4 μg/mL. The plate was then sealed and incubated at 37° C. for 2 hours. 10 μL of recombinant phage (1.6×10^8 pfu/mL) was added to each well. The plate was then re-sealed and incubated at 37° C. for an additional 2 hours. A master mix was made containing 15 μL 5× lysis buffer, 50 μL luciferase assay buffer, and 1 μL luciferase substrate per well. 65 μL of master mix was added to each well. Luminescence from the reactions was read on a GLOMAX® Navigator and relative luminal units (RLU) for each reaction were plotted and analyzed. RLU values three times greater than an established background RLU level for modified Amies solution (>1500 RLU) were considered positive. The results, shown in Table 3, indicate that a positive MRSA determination was made with 17 CFU in a well, originating from approximately 125 CFU on a swab when incubated with the previously established cut-off of 1.8 μg/mL. Positive results are in bold.

[1] = strain AR0463 MRSA, detected CFU 419
[2] = strain AR0465 MRSA, detected CFU 111
[3] = strain AR0472 MRSA, detected CFU 190
[4] = strain AR0476 MRSA, detected CFU 194
[5] = strain AR0481 MRSA, detected CFU 43
[6] = strain BAA-1720 MRSA, detected CFU 201
[7] = strain 12600 MSSA, detected CFU 389
[8] = strain AR0484 MSSA, detected CFU 153
[9] = strain AR0488 MSSA, detected CFU 285
[10] = strain AR0491 MSSA, detected CFU 300
[11] = target swab CFU 8, detected CFU 1
[12] = target swab CFU 16, detected CFU 1
[13] = target swab CFU 31, detected CFU 1
[14] = target swab CFU 63, detected CFU 9
[15] = target swab CFU 125, detected CFU 17
[16] = target swab CFU 250, detected CFU 41
[17] = target swab CFU 500, detected CFU 72
[18] = target swab CFU 1000, detected CFU 136

Structure (SMILES): CO[C@@]1(NC(=O)Cc2cccs2)C(=O)N2C(C(=O)O)=C(COC(N)=O)CS[C@@H]21 [Cefoxitin, cefoxitin]
- Cefoxitin (RLU) 2 ug/mL (MRSA; [1]): 1125 RLU
- Cefoxitin (RLU) 4 ug/mL (MRSA; [1]): 349 RLU
- Cefoxitin (RLU) 8 ug/mL (MRSA; [1]): 287 RLU
- Cefoxitin (RLU) 10 ug/mL (MRSA; [1]): 246 RLU
- Cefoxitin (RLU) 2 ug/mL (MRSA; [2]): 7815 RLU
- Cefoxitin (RLU) 4 ug/mL (MRSA; [2]): 5254 RLU
- Cefoxitin (RLU) 8 ug/mL (MRSA; [2]): 4619 RLU
- Cefoxitin (RLU) 10 ug/mL (MRSA; [2]): 2869 RLU
- Cefoxitin (RLU) 2 ug/mL (MRSA; [3]): 3538 RLU
- Cefoxitin (RLU) 4 ug/mL (MRSA; [3]): 229 RLU
- Cefoxitin (RLU) 8 ug/mL (MRSA; [3]): 239 RLU
- Cefoxitin (RLU) 10 ug/mL (MRSA; [3]): 220 RLU
- Cefoxitin (RLU) 2 ug/mL (MRSA; [4]): 1202 RLU
- Cefoxitin (RLU) 4 ug/mL (MRSA; [4]): 213 RLU
- Cefoxitin (RLU) 8 ug/mL (MRSA; [4]): 204 RLU
- Cefoxitin (RLU) 10 ug/mL (MRSA; [4]): 248 RLU
- Cefoxitin (RLU) 2 ug/mL (MRSA; [5]): 3499 RLU
- Cefoxitin (RLU) 4 ug/mL (MRSA; [5]): 983 RLU
- Cefoxitin (RLU) 8 ug/mL (MRSA; [5]): 222 RLU
- Cefoxitin (RLU) 10 ug/mL (MRSA; [5]): 250 RLU
- Cefoxitin (RLU) 2 ug/mL (MRSA; [6]): 14910 RLU
- Cefoxitin (RLU) 4 ug/mL (MRSA; [6]): 11250 RLU
- Cefoxitin (RLU) 8 ug/mL (MRSA; [6]): 7123 RLU
- Cefoxitin (RLU) 10 ug/mL (MRSA; [6]): 6431 RLU
- detection after incubation with cefoxitin (MSSA; 2 ug/mL): selective loss of MSSA detection
- susceptibility of MSSA strains (MSSA; 2 ug/mL): susceptible
- Cefoxitin (RLU) 2 ug/mL (MSSA; [7]): 797 RLU
- Cefoxitin (RLU) 4 ug/mL (MSSA; [7]): 475 RLU
- Cefoxitin (RLU) 8 ug/mL (MSSA; [7]): 332 RLU
- Cefoxitin (RLU) 10 ug/mL (MSSA; [7]): 277 RLU
- Cefoxitin (RLU) 2 ug/mL (MSSA; [8]): 227 RLU
- Cefoxitin (RLU) 4 ug/mL (MSSA; [8]): 195 RLU
- Cefoxitin (RLU) 8 ug/mL (MSSA; [8]): 197 RLU
- Cefoxitin (RLU) 10 ug/mL (MSSA; [8]): 204 RLU
- Cefoxitin (RLU) 2 ug/mL (MSSA; [9]): 254 RLU
- Cefoxitin (RLU) 4 ug/mL (MSSA; [9]): 220 RLU
- Cefoxitin (RLU) 8 ug/mL (MSSA; [9]): 213 RLU
- Cefoxitin (RLU) 10 ug/mL (MSSA; [9]): 229 RLU
- Cefoxitin (RLU) 2 ug/mL (MSSA; [10]): 207 RLU
- Cefoxitin (RLU) 4 ug/mL (MSSA; [10]): 234 RLU
- Cefoxitin (RLU) 8 ug/mL (MSSA; [10]): 187 RLU
- Cefoxitin (RLU) 10 ug/mL (MSSA; [10]): 191 RLU
- Cefoxitin (RLU) 1.8 ug/mL (BAA-1720 MRSA; [11]): 559 RLU
- Cefoxitin (RLU) 3.6 ug/mL (BAA-1720 MRSA; [11]): 429 RLU
- Cefoxitin (RLU) 5.4 ug/mL (BAA-1720 MRSA; [11]): 336 RLU
- Cefoxitin (RLU) 1.8 ug/mL (BAA-1720 MRSA; [12]): 1179 RLU
- Cefoxitin (RLU) 3.6 ug/mL (BAA-1720 MRSA; [12]): 470 RLU
- Cefoxitin (RLU) 5.4 ug/mL (BAA-1720 MRSA; [12]): 551 RLU
- Cefoxitin (RLU) 1.8 ug/mL (BAA-1720 MRSA; [13]): 880 RLU
- Cefoxitin (RLU) 3.6 ug/mL (BAA-1720 MRSA; [13]): 558 RLU
- Cefoxitin (RLU) 5.4 ug/mL (BAA-1720 MRSA; [13]): 1405 RLU
- Cefoxitin (RLU) 1.8 ug/mL (BAA-1720 MRSA; [14]): 1280 RLU
- Cefoxitin (RLU) 3.6 ug/mL (BAA-1720 MRSA; [14]): 1568 RLU
- Cefoxitin (RLU) 5.4 ug/mL (BAA-1720 MRSA; [14]): 1286 RLU
- Cefoxitin (RLU) 1.8 ug/mL (BAA-1720 MRSA; [15]): 2512 RLU
- Cefoxitin (RLU) 3.6 ug/mL (BAA-1720 MRSA; [15]): 1337 RLU
- Cefoxitin (RLU) 5.4 ug/mL (BAA-1720 MRSA; [15]): 2501 RLU
- Cefoxitin (RLU) 1.8 ug/mL (BAA-1720 MRSA; [16]): 3766 RLU
- Cefoxitin (RLU) 3.6 ug/mL (BAA-1720 MRSA; [16]): 4022 RLU
- Cefoxitin (RLU) 5.4 ug/mL (BAA-1720 MRSA; [16]): 3374 RLU
- Cefoxitin (RLU) 1.8 ug/mL (BAA-1720 MRSA; [17]): 11590 RLU
- Cefoxitin (RLU) 3.6 ug/mL (BAA-1720 MRSA; [17]): 7112 RLU
- Cefoxitin (RLU) 5.4 ug/mL (BAA-1720 MRSA; [17]): 7648 RLU
- Cefoxitin (RLU) 1.8 ug/mL (BAA-1720 MRSA; [18]): 23820 RLU
- Cefoxitin (RLU) 3.6 ug/mL (BAA-1720 MRSA; [18]): 17540 RLU
- Cefoxitin (RLU) 5.4 ug/mL (BAA-1720 MRSA; [18]): 18400 RLU

Source: US11952611B2, “Methods and systems for detection of antibiotic resistance” (Laboratory Corporation of America Holdings, priority 2017, dated 2024)
